The values below come from patent US20250171438A1 (Agios Pharmaceuticals, Inc., priority 2022, published 2025).

For the first assay, the target named is T1, human PAH with the R408W mutation (Homo sapiens, UniProt P00439, R408W).
T1 construct: expressed in transfected cells
T1 sequence (P00439 1-452 R408W): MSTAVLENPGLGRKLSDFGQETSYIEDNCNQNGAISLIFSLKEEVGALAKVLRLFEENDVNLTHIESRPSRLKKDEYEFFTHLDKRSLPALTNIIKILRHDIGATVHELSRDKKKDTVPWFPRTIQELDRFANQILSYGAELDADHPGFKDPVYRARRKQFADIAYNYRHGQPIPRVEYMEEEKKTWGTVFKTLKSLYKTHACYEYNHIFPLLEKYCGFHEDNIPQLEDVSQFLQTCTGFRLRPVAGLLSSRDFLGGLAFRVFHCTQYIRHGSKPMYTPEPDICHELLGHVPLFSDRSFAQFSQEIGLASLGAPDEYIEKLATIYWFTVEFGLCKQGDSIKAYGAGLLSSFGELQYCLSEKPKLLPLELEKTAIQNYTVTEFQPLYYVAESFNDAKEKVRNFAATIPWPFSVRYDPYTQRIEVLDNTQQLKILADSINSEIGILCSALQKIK
The experiment in a line: Cell Based Phenylalanine Flux Assay. The conditions noted are these: A375 cells expressing human R408W PAH; 24 hrs compound incubation; 13C-Tyrosine by LC-MS; average where tested multiple times; read-out: AC50. Details: scale not given here.
Regarding `O=C(c1nnc(-c2cc(C(F)(F)F)ccn2)o1)N1CCc2[nH]cnc2[C@H]1c1nc2ccccc2s1` [Example 1889, [(4S)-4-(1,3-benzothiazol-2-yl)-1,4,6,7-tetrahydroimidazo[4,5-c]pyridin-5-yl]-[5-[4-(trifluoromethyl)-2-pyridyl]-1,3,4-oxadiazol-2-yl]methanone], the AC50 (commonly the concentration giving half of the maximal activity seen) was below 500 nM.
As to `O=C(c1nnc(-c2ccc(C(F)(F)F)cn2)o1)N1CCc2[nH]cnc2[C@H]1c1nc2c(F)cccc2s1` [Example 1848, (S)-(4-(4-fluorobenzo[d]thiazol-2-yl)-6,7-dihydro-1H-imidazo[4,5-c]pyridin-5(4H)-yl)(5-(5-(trifluoromethyl)pyridin-2-yl)-1,3,4-oxadiazol-2-yl)methanone], the AC50 is 1000 to 5000 nM.
As to `CN1CCN(c2nc(C(F)F)c(C(=O)N3CCc4[nH]cnc4[C@@H]3c3nc4c(F)cccc4s3)o2)CC1` [Example 2024, (R)-(4-(difluoromethyl)-2-(4-methylpiperazin-1-yl)oxazol-5-yl)(4-(4-fluorobenzo[d]thiazol-2-yl)-6,7-dihydro-1H-imidazo[4,5-c]pyridin-5(4H)-yl)methanone], the AC50 is 1000 to 5000 nM.
Still for that read-out and setting: under `O=C(c1cnn2c(Br)cccc12)N1CCc2[nH]cnc2[C@H]1c1nc2ccc(F)cc2s1` [Example 1149] stands below 500 nM.
On the same count and under the same terms, under “(R)-2-((4-(6-fluoro-1H-benzo[d]imidazol-2-yl)-6,7-dihydro-1H-imidazo[4,5-c]pyridin-5(4H)-yl)methyl)thiazole [Example 972]” stands above 5000 nM; under `Cc1n[nH]cc1-c1nnc(C(=O)N2CCc3[nH]cnc3[C@H]2c2nc3ccccc3s2)o1` [Example 1941], below 500 nM.
Consider `O=C(c1nnc(-c2ccc(C(F)(F)F)cn2)o1)N1CCc2[nH]cnc2[C@H]1c1nc2ccccc2s1` [Example 1830], for which the AC50 fell in the range of 500 to 1000 nM.
Still for that read-out and setting: next, `Cc1nc(C2(O)CCC2)oc1C(=O)N1CCc2[nH]cnc2[C@H]1c1nc2c(F)cccc2s1` [Example 1913, (S)-(4-(4-fluorobenzo[d]thiazol-2-yl)-6,7-dihydro-1H-imidazo[4,5-c]pyridin-5(4H)-yl)(2-(1-hydroxycyclobutyl)-4-methyloxazol-5-yl)methanone]: 500 to 1000 nM; `Cc1nn(C)cc1-c1ncc(C(=O)N2CCc3[nH]cnc3[C@@H]2c2nc3ccccc3s2)o1` [Example 1382, (R)-(4-(benzo[d]thiazol-2-yl)-6,7-dihydro-1H-imidazo[4,5-c]pyridin-5(4H)-yl)(2-(1,3-dimethyl-1H-pyrazol-4-yl)oxazol-5-yl)methanone]: 1000 to 5000 nM.
Same read-out and setting: under `Cn1ncc(-c2ncc(C(=O)N3CCc4[nH]cnc4[C@@H]3c3nc4ccccc4s3)s2)c1C(F)(F)F` [Example 1408, (R)-(4-(benzo[d]thiazol-2-yl)-6,7-dihydro-1H-imidazo[4,5-c]pyridin-5(4H)-yl)(2-(1-methyl-5-(trifluoromethyl)-1H-pyrazol-4-yl)thiazol-5-yl)methanone] stands 1000 to 5000 nM; under `O=C(c1cnn2ccccc12)N1CCc2[nH]cnc2[C@@H]1c1nc2c(Cl)cccc2s1` [Example 1222, (R)-(4-(4-chlorobenzo[d]thiazol-2-yl)-6,7-dihydro-1H-imidazo[4,5-c]pyridin-5(4H)-yl)(pyrazolo[1,5-a]pyridin-3-yl)methanone], 1000 to 5000 nM; under `O=C(c1cnn2cc(Cl)ccc12)N1CCc2[nH]cnc2[C@@H]1c1nc2ccccc2s1` [Example 1064, (R)-(4-(benzo[d]thiazol-2-yl)-6,7-dihydro-1H-imidazo[4,5-c]pyridin-5(4H)-yl)(6-chloropyrazolo[1,5-a]pyridin-3-yl)methanone], above 5000 nM.
Same read-out and setting: under `O=C(c1cnn2ccc(F)cc12)N1CCc2[nH]cnc2[C@H]1c1nc2ccccc2[nH]1` [Example 944, (S)-(4-(1H-benzo[d]imidazol-2-yl)-6,7-dihydro-1H-imidazo[4,5-c]pyridin-5(4H)-yl)(5-fluoropyrazolo[1,5-a]pyridin-3-yl)methanone] stands 500 to 1000 nM; under `O=C(c1nccs1)N1CCc2[nH]cnc2[C@@H]1c1nc2ccccc2s1` [Example 1008, (R)-(4-(benzo[d]thiazol-2-yl)-6,7-dihydro-1H-imidazo[4,5-c]pyridin-5(4H)-yl)(thiazol-2-yl)methanone], above 5000 nM.
On to `Cc1nc(-c2ccccc2)c(C(=O)N2CCc3[nH]cnc3[C@@H]2c2nc3ccccc3s2)o1` [Example 1519, (R)-(4-(benzo[d]thiazol-2-yl)-6,7-dihydro-1H-imidazo[4,5-c]pyridin-5(4H)-yl)(2-methyl-4-phenyloxazol-5-yl)methanone], for which the AC50 is above 5000 nM.
As for `O=C(CCC1CC1)N1CCc2[nH]cnc2[C@@H]1c1nc2ccc(F)cc2[nH]1` [Example 961, (R)-3-cyclopropyl-1-(4-(6-fluoro-1H-benzo[d]imidazol-2-yl)-6,7-dihydro-1H-imidazo[4,5-c]pyridin-5(4H)-yl)propan-1-one], the AC50 was above 5000 nM.
Same read-out and setting: next, `O=C(c1cnc(-c2c(F)cccc2F)s1)N1CCc2[nH]cnc2[C@@H]1c1nc2c(F)cccc2s1` [Example 1503, (R)-(2-(2,6-difluorophenyl)thiazol-5-yl)(4-(4-fluorobenzo[d]thiazol-2-yl)-6,7-dihydro-1H-imidazo[4,5-c]pyridin-5(4H)-yl)methanone]: below 500 nM; `O=C(c1cnc(-c2cnn(CC(F)(F)F)c2)s1)N1CCc2[nH]cnc2[C@H]1c1nc2ccccc2s1` [Example 1361]: below 500 nM.
On the same count and under the same terms, under `O=C(c1cnn2ccccc12)N1CCc2[nH]cnc2[C@@H]1c1nc2c(Br)cccc2s1` [Example 1242, (R)-(4-(4-bromobenzo[d]thiazol-2-yl)-6,7-dihydro-1H-imidazo[4,5-c]pyridine-5(4H)-yl)(pyrazolo [1,5-a]pyridin-3-yl) methanone] stands above 5000 nM; under `O=C(c1cncs1)N1CCc2[nH]cnc2[C@H]1c1nc2cccc(F)c2s1` [Example 1233, (S)-(4-(7-fluorobenzo[d]thiazol-2-yl)-6,7-dihydro-1H-imidazo[4,5-c]pyridin-5(4H)-yl)(thiazol-5-yl)methanone], 500 to 1000 nM.
On the same count and under the same terms, next, `Cc1nc(-c2cnn(C)c2)oc1C(=O)N1CCc2[nH]cnc2[C@H]1c1nc2c(F)cccc2s1` [Example 1378, (S)-(4-(4-fluorobenzo[d]thiazol-2-yl)-6,7-dihydro-1H-imidazo[4,5-c]pyridin-5(4H)-yl)(4-methyl-2-(1-methyl-1H-pyrazol-4-yl)oxazol-5-yl)methanone]: below 500 nM.
Turning to `O=C(CCC1CCCC1)N1CCc2[nH]cnc2[C@H]1c1nc2ccccc2s1` [Example 1015], the AC50 fell in the range of 500 to 1000 nM.
For the compound `O=C(c1ncc(Cl)s1)N1CCc2[nH]cnc2[C@H]1c1nc2c(F)cccc2s1` [Example 1219], the AC50 was below 500 nM.
Take `c1ccc2[nH]c([C@@H]3c4nc[nH]c4CCN3c3nc4ccccc4o3)nc2c1` [Example 988, (S)-2-(4-(1H-benzo[d]imidazol-2-yl)-6,7-dihydro-1H-imidazo[4,5-c]pyridin-5(4H)-yl)benzo[d]oxazole]: the AC50 was below 500 nM.
On the same count and under the same terms, next, `COCc1ncc(C(=O)N2CCc3[nH]cnc3[C@@H]2c2nc3c(F)cccc3s2)s1` [Example 1704, (R)-(4-(4-fluorobenzo[d]thiazol-2-yl)-6,7-dihydro-1H-imidazo[4,5-c]pyridin-5(4H)-yl)(2-(methoxymethyl)thiazol-5-yl)methanone]: 1000 to 5000 nM.

Staying with this assay, now noted: A375 cells expressing human R408W PAH; 24 hrs with compound; 13C-Tyrosine by LC-MS; average where tested multiple times.
For the compound `O=C(c1oc(-c2ccccn2)nc1C(F)(F)F)N1CCc2[nH]cnc2C1c1nc2ccccc2s1` (stereo not drawn), the AC50 entry is listed as “E, E”.
Same read-out and setting: under `NC(=O)c1nc(-c2ccccn2)oc1C(=O)N1CCc2[nH]cnc2[C@H]1c1nc2ccccc2s1` (single isomer, unassigned) stands “E, E”.

The same assay, now with this note: A375 cells expressing human R408W PAH; 24 hrs with compound; 13C-Tyrosine by LC-MS; average where tested multiple times; read-out: AC50.
Regarding `O=C(c1oc(-c2ccccc2)nc1-c1ccccc1)N1CCc2[nH]cnc2C1c1nc2ccccc2s1` (stereo not drawn), the AC50 was above 5000 nM.
The same measure, in the same setting: next, `N#Cc1ccn2ncc(C(=O)N3CCc4[nH]cnc4C3c3nc4ccc(Br)cc4[nH]3)c2c1` (stereo not drawn): above 5000 nM; `Cc1nc(N2CCOCC2)oc1C(=O)N1CCc2[nH]cnc2C1c1nc2c(F)cccc2s1` (stereo not drawn): 1000 to 5000 nM; `CC(C)(O)c1cc(C(=O)N2CCc3[nH]cnc3C2c2nc3c(F)cccc3s2)ns1` (stereo not drawn): 1000 to 5000 nM.
Same read-out and setting: next, `O=C(c1cnn2ccc(Cl)cc12)N1CCc2[nH]cnc2C1c1nc2ccc(Cl)cc2[nH]1` (stereo not drawn): above 5000 nM.
Turning to `O=C(CCc1nc(Cl)cs1)N1CCc2[nH]cnc2[C@H]1c1nc2ccccc2[nH]1` [(S)-1-(4-(1H-benzo[d]imidazol-2-yl)-1,4,6,7-tetrahydro-5H-imidazo[4,5-c]pyridin-5-yl)-3-(4-chlorothiazol-2-yl)propan-1-one], the AC50 lay in the range of 1000 to 5000 nM.
Same read-out and setting: next, `COCc1ccc2c(C(=O)N3CC4(CC4)c4[nH]cnc4C3c3nc4ccccc4s3)cnn2c1` (stereo not drawn): 1000 to 5000 nM; `CN(C)Cc1nc(C#N)c(C(=O)N2CCc3[nH]cnc3C2c2nc3ccccc3s2)o1` (stereo not drawn): 1000 to 5000 nM; `O=C(Cc1nccs1)N1CCc2[nH]cnc2C1c1nc2ccc(F)cc2s1` (stereo not drawn): above 5000 nM.
Still for that read-out and setting: next, `Cc1nc(-c2ccccn2)oc1C(=O)N1CC2(CC2)c2[nH]cnc2C1c1nc2ccccc2s1` (stereo not drawn): above 5000 nM; `O=C(c1cnn2cccc(F)c12)N1CCc2[nH]cnc2C1c1nc2ccc(F)cc2s1` (stereo not drawn): 1000 to 5000 nM.
For the compound `Cn1nc(C(N)=O)cc1C(=O)N1CCc2[nH]cnc2C1c1nc2c(F)cccc2s1` (stereo not drawn), the AC50 was above 5000 nM.
